Experimental data from PMC12567096, “An Efficacy- and In Vivo Exposure-Oriented Integrated Study to Investigate the Effective Components of Qishen Granule” (Pharmaceuticals, 2025).

Tests used:
[1] = Concentrations of 24 analytes in QSG treated plasma (Table S5); details: for concentration at 0.08 h / concentration at 0.17 h / concentration at 0.5 h / concentration at 1 h / concentration at 2 h / concentration at 4 h / concentration at 8 h / concentration at 12 h: Sprague Dawley, rat, plasma, oral, 7 g/kg; for Concentration: QSG treated plasma, n = 5
[2] = Pharmacokinetic study in rats after oral administration of QSG; details: for AUC(0-inf): AUC0→∞; for Oral relative bioavailability: exposure level (AUC0→∞) compared with the dosage of each compound in QSG; for Shape of the plasma concentration–time curve (in words): rats
Method: Ion source parameters were set as follows: temperatures of drying gas and sheath gas were 300 °C and 300 °C, flow rates of drying gas and sheath gas were 7 L/min and 11 L/min, the nebulizer was set at 35 psig, capillary voltage was 3500 V (−), and nozzle voltage was 2000 V (−). […] Chromatographic separations were conducted on a ZORBAX Eclipse Plus C18 column (3.0 × 50 mm, 1.8 μm, Agilent Technologies, California, USA). The mobile phase was composed of 0.1% aqueous FA (A, (v/v)) and 0.1% formic acid methanol (B), the flow rate was set at 0.5 mL/min, and the column oven was maintained at 40 °C.
Protein precipitation was carried out for each time point for plasma samples, calibration samples, or QC samples by introducing four volumes of acetonitrile containing 400 ng/mL of icariin. Then, 10 μL 10% aqueous ascorbic acid (v/v) was spiked into each sample to prevent the oxidation of phenolic compounds. […] An aliquot (450 μL) of the supernatant was transferred and dried under nitrogen vacuum.
The pharmacokinetic parameters were calculated by DAS software (version 2.0) for a non-compartmental analysis.

H9c2 cells = assay: Cytotoxicity on H9c2 cells (CCK-8); format: cell-based, rat; details: for inhibition at 25 µM / inhibition at 50 µM / inhibition at 100 µM: Rattus norvegicus, read-out: Inhibition rate; for inhibition at 25 µM / inhibition at 50 µM / inhibition at 100 µM / Inhibition rate: H9c2 cells, n=3
Method: (§1) Rat myocardial H9c2 cells (purchased from China Infrastructure of Cell Line Resources, Institute of Basic Medical Sciences, Chinese Academy of Medical Sciences) were cultured in DMEM supplemented with 10% fetal bovine serum (FBS), Penicillin (100 U/mL), and Streptomycin (100 μg/mL) at 37 °C under a humidified atmosphere of 5% CO2 and 95% air. For OGD/R treatment, H9c2 cells were cultured in glucose-free DMEM under hypoxic conditions (95%N2 + 5%CO2) for 4 h at 37 °C followed by complete medium under normal conditions with air (95%) and CO2 (5%) for 2 h. A control group was maintained under normal culture conditions (with glucose-containing DMEM and 5% CO2) without undergoing OGD/R treatment. CCK8 was used to assess cell viability. After treatment, H9c2 cells were seeded in 96-well plates, with each well supplemented with 10 μL of CCK-8 solution and then incubated for 1 h. Finally, the absorbance at 450 nm was detected by a microplate reader (Model […] 200 PRO, TECAN, Grodig, Austria).
When evaluating the cytotoxicities of the absorbed compounds, the H9c2 cells were seeded in 96-well plates at a density of 1 × 10^4 cells/well; when cells reached 80% confluence, […] Afterward, the protective effects were verified by assessing the cell viability when treating with different concentrations (1, 10, 25, 50, and 100 μM) of the analytes prior to OGD/R treatment.

OGD/R-induced H9c2 cells = assay: Protective effect on OGD/R-induced H9c2 cells (CCK-8 cell viability); format: cell-based, rat; details: for H9c2 cell survival after OGD/R (in words): 1, 10, 25, 50 and 100 μM prior to OGD/R, vs model group; for EC50: protective effect against OGD/R injury, H9c2 cell viability
Method: as §1
When evaluating the cytotoxicities of the absorbed compounds, the H9c2 cells were seeded in 96-well plates at a density of 1 × 10^4 cells/well; when cells reached 80% confluence, they were treated with 25 and 50 μM of the 24 analytes to screen the non-toxic concentration ranges. Afterward, the protective effects were verified by assessing the cell viability when treating with different concentrations (1, 10, 25, 50, and 100 μM) of the analytes prior to OGD/R treatment.

[3] = Sprague Dawley, rat, plasma, po, 7 g/kg
[4] = Sprague Dawley, rat, plasma, po, 7 g/kg, Table S12, rats, oral QSG
[5] = Sprague Dawley, rat, plasma, po, 7 g/kg, rat plasma, single oral 7 g/kg QSG, n = 6
[6] = rat plasma, single oral 7 g/kg QSG, n = 6

`COc1ccc(-c2coc3cc(O)ccc3c2=O)cc1` [Formononetin] showed a concentration at 0.08 h [1] of 0.74 ± 0.932 ng/mL, a concentration at 0.17 h [1] of 2.81 ± 1.24 ng/mL and a concentration at 0.5 h [1] of 4.23 ± 0.976 ng/mL. For the same compound, the concentration at 1 h [1] was 2.77 ± 1.06 ng/mL, the concentration at 2 h [1] was 1.45 ± 0.436 ng/mL and the concentration at 4 h [1] was 1.03 ± 0.395 ng/mL. It also gave a concentration at 8 h [1] of 0.656 ± 0.349 ng/mL, a concentration at 12 h [1] of 0.289 ± 0.213 ng/mL and an AUC [2, 3] of 27.7 ng·h/mL. The AUC(0-t) [2, 3] was 18.5 ± 5.01 ng·h/mL, the Cmax [2, 3] was 4.31 ± 0.952 ng/mL and the MRT [2, 3] was 6.79 ± 4.77 h. The Tmax [2, 3] was 0.516 ± 0.15 h, the half-life [2, 3] was 10.9 ± 9.19 h and the AUC(0-inf) [2, 4] was 27.7 ng·h/mL. The AUC(0-inf) [2, 5] was 27.7 ± 12.2 ng·h/mL, the Oral relative bioavailability [2] was 0.033% and the inhibition at 25 µM (H9c2 cells; 25 μM) was 10.7 ± 4.5%. The inhibition at 50 µM (H9c2 cells; 50 μM) was 10.8 ± 5.2%, the inhibition at 100 µM (H9c2 cells; 100 μM) was 13.5 ± 2.2% and the “H9c2 cell survival after OGD/R (in words)” value (shortened to “H9c2 cell survival”) (OGD/R-induced H9c2 cells) was “significantly improve H9c2 cell survival rates”. The EC50 (OGD/R-induced H9c2 cells; Rattus norvegicus) was 65 µM and the “Protective effects on OGD/R-induced H9c2 cells (in words)” value (OGD/R-induced H9c2 cells; at 50 and 100 μM) was “significant protective effects”.
In the case of `O=C(/C=C/c1ccc(O)c(O)c1)O[C@H]1[C@H](O)C[C@](O)(C(=O)O)C[C@H]1OC(=O)/C=C/c1ccc(O)c(O)c1` [Isochlorogenic acid C], the Concentration ([1]; 0.08 h) is reported as 12.829 ± 7.386 ng/mL, the Concentration ([1]; 0.17 h) is reported as 23.904 ± 9.523 ng/mL and the Concentration ([1]; 0.5 h) is reported as 18.491 ± 8.090 ng/mL. It also gave a Concentration ([1]; 1 h) of 11.005 ± 7.334 ng/mL, a Concentration ([1]; 2 h) of 7.777 ± 3.293 ng/mL and a Concentration ([1]; 4 h) of 2.637 ± 2.154 ng/mL. The Concentration ([1]; 8 h) was 7.703 ± 2.363 ng/mL, the Concentration ([1]; 12 h) was 1.848 ± 1.625 ng/mL and the “AUC0→∞” value ([2]; Table S12, rats, oral QSG) was 170.5 ng·h/mL. The AUCi ([2]; exposure (AUC0→∞) of the component in rats after oral QSG, as used for ECI) was 170.5, the Oral relative bioavailability [2] was 0.008% and the “Absorption efficiency / bioavailability (in words)” value ([2]; from Table S12, rats, oral QSG) was “less readily absorbed”. For the same compound, the AUC0→t [2, 6] was 116.3 ± 39.63 ng·h/mL, the “AUC0→∞” value [2, 6] was 170.5 ± 80.02 ng·h/mL and the Cmax [2, 6] was 33.95 ± 8.980 ng/mL. For the same compound, the MRT [2, 6] was 8.361 ± 4.800 h, the T1/2 [2, 6] was 16.43 ± 14.14 h and the Tmax [2, 6] was 0.334 ± 0.165 h. For the same compound, the “Shape of the plasma concentration–time curve (in words)” value ([2]; oral QSG) was “Double peaks”, the Inhibition rate (H9c2 cells; 25 μM) was -11.8 ± 6.3% and the Inhibition rate (H9c2 cells; 50 μM) was -16.6 ± 1.3%. The Inhibition rate (H9c2 cells; 100 μM) was -6.3 ± 2.3%, the “Effect on H9c2 cell viability / cytotoxicity (in words)” value (H9c2 cells; CCK-8, compared to the control group) was “significantly enhanced cell viabilities” and the “H9c2 cell survival” value (OGD/R-induced H9c2 cells) was “significantly improve H9c2 cell survival rates”. The EC50 (OGD/R-induced H9c2 cells) was 1.09 µM.
Compound `O=C(/C=C/c1ccc(O)cc1)c1ccc(O)cc1O` [Isoliquiritigenin] has a concentration at 0.08 h [1] of 0.69 ± 0.227 ng/mL, a concentration at 0.17 h [1] of 1.65 ± 0.585 ng/mL and a concentration at 0.5 h [1] of 0.454 ± 0.151 ng/mL. The concentration at 1 h [1] was 0.355 ± 0.17 ng/mL, the concentration at 2 h [1] was 0.179 ± 0.041 ng/mL and the concentration at 4 h [1] was 0.231 ± 0.054 ng/mL. It also gave a concentration at 8 h [1] of 0.053 ± 0.038 ng/mL, a concentration at 12 h [1] of 0.124 ± 0.092 ng/mL and an AUC [2, 3] of 4.89 ng·h/mL. The AUC(0-t) [2, 3] was 3.17 ± 0.843 ng·h/mL, the Cmax [2, 3] was 1.65 ± 0.585 ng/mL and the MRT [2, 3] was 7.68 ± 2.17 h. For the same compound, the Tmax [2, 3] was 0.17 h, the half-life [2, 3] was 12.4 ± 10.5 h and the AUC(0-inf) [2, 4] was 4.89 ng·h/mL. For the same compound, the AUC(0-inf) [2, 5] was 4.89 ± 2.77 ng·h/mL, the “Shape of the plasma concentration–time curve (in words)” value ([2]; oral QSG) was “Double peaks” and the inhibition at 25 µM (H9c2 cells; 25 μM) was -14.9 ± 9.3%. The inhibition at 50 µM (H9c2 cells; 50 μM) was -1.2 ± 7.6%, the inhibition at 100 µM (H9c2 cells; 100 μM) was 7.2 ± 4.2% and the “H9c2 cell survival” value (OGD/R-induced H9c2 cells) was “significantly improve H9c2 cell survival rates”. For the same compound, the EC50 (OGD/R-induced H9c2 cells; Rattus norvegicus) was 10.3 µM.
For `O=c1cc(-c2ccc(O)c(O)c2)oc2cc(O)cc(O)c12` [Luteolin], the concentration at 0.08 h [1] was 5.84 ± 1.29 ng/mL, the concentration at 0.17 h [1] was 13.6 ± 4.12 ng/mL and the concentration at 0.5 h [1] was 4.37 ± 1.59 ng/mL. It also gave a concentration at 1 h [1] of 2.41 ± 0.697 ng/mL, a concentration at 2 h [1] of 0.911 ± 0.249 ng/mL and a concentration at 4 h [1] of 0.251 ± 0.183 ng/mL. It also gave a concentration at 8 h [1] of 0.188 ± 0.101 ng/mL, a concentration at 12 h [1] of 0.042 ± 0.044 ng/mL and an AUC [2, 3] of 10.9 ng·h/mL. For the same compound, the AUC(0-t) [2, 3] was 10.3 ± 0.93 ng·h/mL, the Cmax [2, 3] was 12.8 ± 4.12 ng/mL and the MRT [2, 3] was 1.84 ± 0.448 h. For the same compound, the Tmax [2, 3] was 0.17 h, the half-life [2, 3] was 2.6 ± 1.22 h and the AUC(0-inf) [2, 5] was 10.9 ± 0.867 ng·h/mL. The inhibition at 25 µM (H9c2 cells; 25 μM) was 12.2 ± 4%, the inhibition at 50 µM (H9c2 cells; 50 μM) was 13.1 ± 7.2% and the inhibition at 100 µM (H9c2 cells; 100 μM) was 18.1 ± 4.2%. The “H9c2 cell survival” value (OGD/R-induced H9c2 cells) was “significantly improve H9c2 cell survival rates” and the EC50 (OGD/R-induced H9c2 cells; Rattus norvegicus) was 11.3 µM.
